One data set has as its target T1, human LOXL2 (Homo sapiens, UniProt Q9Y4K0).
T1 sequence (Q9Y4K0 26-774): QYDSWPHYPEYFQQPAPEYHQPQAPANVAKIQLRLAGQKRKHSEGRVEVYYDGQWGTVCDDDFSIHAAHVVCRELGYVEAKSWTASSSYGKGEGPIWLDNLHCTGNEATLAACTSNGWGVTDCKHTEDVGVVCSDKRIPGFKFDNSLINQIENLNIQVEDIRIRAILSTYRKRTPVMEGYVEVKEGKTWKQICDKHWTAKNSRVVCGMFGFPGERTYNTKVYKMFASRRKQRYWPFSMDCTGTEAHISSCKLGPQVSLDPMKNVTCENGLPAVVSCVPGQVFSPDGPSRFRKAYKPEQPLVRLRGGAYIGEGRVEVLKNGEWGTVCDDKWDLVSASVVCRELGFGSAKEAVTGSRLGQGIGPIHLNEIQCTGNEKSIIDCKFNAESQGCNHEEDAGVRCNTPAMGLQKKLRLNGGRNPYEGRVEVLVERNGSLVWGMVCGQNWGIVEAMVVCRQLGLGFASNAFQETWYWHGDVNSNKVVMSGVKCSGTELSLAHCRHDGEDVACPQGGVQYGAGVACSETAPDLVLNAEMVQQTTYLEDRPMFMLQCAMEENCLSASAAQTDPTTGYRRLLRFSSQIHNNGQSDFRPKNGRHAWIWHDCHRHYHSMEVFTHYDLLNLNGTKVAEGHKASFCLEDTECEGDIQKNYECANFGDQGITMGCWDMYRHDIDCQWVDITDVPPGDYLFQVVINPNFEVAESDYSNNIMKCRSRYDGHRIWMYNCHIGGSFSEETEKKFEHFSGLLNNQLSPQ
The data set can be described thus: LOX activity assay (H2O2 release, fluorimetric). The class given is biochemical. The settings on record: 1 h incubation, read-out: IC50 of LOXL2 enzymatic activity toward a model substrate. The method, then: (§1) LOX activity assay LOX activity of recombinant human LOXL2 or conditioned medium collected from cells expressing LOXL2 was measured using a Fluorimetric Lysyl Oxidase Activity Assay Kit (Abeam, Cambridge, Mass.) following a protocol provided by the manufacturer. Briefly, 50 μl of sample was mixed with an equal volume of assay reaction mixture containing LOX substrate, horseradish peroxidase (HRP) and HRP substrate in the presence and absence of testing inhibitors and D-penicillamine (DPA), a LOX inhibitor. The mixture was incubated for 30 min at 37° C. in darkness. The fluorescence increase was then measured with a fluorescence plate reader (BMG Lab Tech FLUOstar) at Ex/Em=540/590 nm. Sample buffer or medium alone without LOXL2 was used for determination of the background fluorescence.

The test system of data set [1] is TGFβ1 signaling (p-smad3) in A549 cells. The data set is described as follows: TGFβ1-induced p-smad generation in cells (immunoblot). The class given is cell-based. The conditions noted are these: 1 μM. As for the experimental part: (§2) Immunoblot. Pulverized tissue and cells were lysed in RIP A buffer (150 mM NaCl, 50 mM Tris, pH 8.0, 1% Triton X-100, 0.5% sodium deoxycholate, 0.1% SDS, supplemented with protease and phosphatase inhibitors) and analyzed by immunoblotting. Densitometry was quantified using NIH Imaged software.
(In western blotting, separated proteins are transferred to a membrane and probed.)

For data set [2], the system named is urinary DPD/PYD after bleomycin. The data set can be described thus: Urinary PYD/DPD measurements. In kind it is in vivo, mice. The conditions noted are these: 100 mg/kg from day 10. The method, then: Urinary PYD/DPD measurements. Pooled urine from each of 3-5 mice for each time point after bleomycin in a cohort of mice treated with vehicle or corilagin (100 mg/kg) beginning on day 10 post bleomycin were collected. Urine specimens were also collected from two cohorts of IPF patients and controls at two sites: All consenting patients with physician-established diagnosis of IPF followed in the respective ILD programs were included in sample collection. PYD/DPD levels from all the samples were measured using MicroVue EIA Assay Kit (Quidel Corp., San Diego, Calif.) along with PYD/DPD standards and the results were normalized relative to urinary creatinine. The statistical significance was analyzed using Mann-Whitney U-Test.

The nature of data set [3]: Bronchoalveolar lavage: immune cells and injury markers. The class given is in vivo. The conditions noted are these: BALF, bleomycin or saline treated mice. The method, then: Bronchoalveolar lavage. After the trachea was exposed, a 20-G catheter was inserted into the trachea through a small incision. 1 ml cold PBS was instilled into the mouse lungs followed by gentle aspiration repeated for three times. All the bronchoalveolar lavage fluid (BALF) was centrifuged and cell pellet was re-suspended in erythrocyte (RBC) lysis buffer (Sigma, St. Louis) followed by re-centrifugation. Cell number was counted using hemocytometer. Cell types of BALF were determined by morphology following Diff-quick stain of cytospin slides. About 500 cells were counted for each sample in order to determine the cell types. Macrophages account for more than 80% of the cells in BALF and were collected by centrifugation. After centrifugation, the supernatant was collected to measure total protein content using the BCA assay (Pierce), while the cell pellet was lysed for immunoblotting or RNA isolation.

The subject of the next data set is LOXL2-high A549 cells. The data set can be described thus: Corilagin level in conditioned medium by LC-MS, A549. The settings on record: 1 μM, 5 hrs. The class given is in vitro ADME.
In a further data set the test system is LOXL2-low HaCaT cells. The data set can be described thus: Corilagin level in conditioned medium by LC-MS, HaCaT. In kind it is in vitro ADME. The settings on record: 1 μM, 5 hrs.
A further data set has as its system EGFR. The data set is described as follows: EGF signaling through EGFR (immunoblot). The class given is cell-based. The conditions noted are these: 1 μM, 6 h pre-treatment, A549 and MDA-MB-231 cells. As for the experimental part:
as §2

The target in data set [4] is T2, wild-type or mutant human LOXL2 (Homo sapiens, UniProt Q9Y4K0).
T2 construct: Flag (C); expressed in transfected cells; host or cells: NMuMG cells, conditioned medium
T2 sequence (Q9Y4K0 26-774): T1 sequence (Q9Y4K0 26-774)
The data set can be described thus: LOX activity of conditioned media from NMuMG cells expressing wild-type or mutant LOXL2. In kind it is cell-based. The settings on record: 1 μM, 6 h, K614N, K759R, all except the K731 mutant. The method, then: as §1
Site-directed mutagenesis of LOXL2. Site-directed mutagenesis was performed to generate K614N, K731R, and K759R point mutations using Phusion Site-Directed Mutagenesis Kit (Thermo Scientific, Waltham, Mass.) according to manufacturer's instructions. A pcDNA3-hLOXL2-flag plasmid containing the cDNA fragment of wild-type human LOXL2 fused with a flag tag at the C-terminus, was used as the template DNA^18. Mutations were confirmed by DNA sequencing. […]

A further data set can be described thus: Solubility (statement). In kind it is physicochemical.
The subject of data set [5] is TGFβ1 signaling (p-smad3, snail 1). The data set can be described thus: TGFβ1 signaling in NMuMG cells expressing wild-type or mutant LOXL2. The class given is cell-based. The conditions noted are these: 1 μM. The method, then:
as §2
Site-directed mutagenesis of LOXL2. Site-directed mutagenesis was performed to generate K614N, K731R, and K759R point mutations using Phusion Site-Directed Mutagenesis Kit (Thermo Scientific, Waltham, Mass.) according to manufacturer's instructions. A pcDNA3-hLOXL2-flag plasmid containing the cDNA fragment of wild-type human LOXL2 fused with a flag tag at the C-terminus, was used as the template DNA^18. Mutations were confirmed by DNA sequencing. The primers and their complementary strands used are: K614N forward 5′-[…]-3′ (SEQ ID NO:2), K614N reverse 5′-[…]-3′(SEQ ID NO:3); K731R forward 5′-[…]-3′(SEQ ID NO:4), K731R reverse 5′-[…]-3′(SEQ ID NO:5); K759R forward 5′-[…]-3′(SEQ ID NO:6), and K759R reverse 5′-[…]-3′(SEQ ID NO:7).

From patent US20210009551A1, “COMPOUNDS AND METHODS FOR TREATING FIBROSIS OR CANCER” (THE REGENTS OF THE UNIVERSITY OF CALIFORNIA, priority 2016, published 2021) come the findings set out here.

Each structure is given as a SMILES string.

A word on the IC50: it is the midpoint of a concentration-inhibition curve.

Consider `O=C(O[C@@H]1O[C@@H]2COC(=O)c3cc(O)c(O)c(O)c3-c3c(cc(O)c(O)c3O)C(=O)O[C@H]([C@H]1O)[C@@H]2O)c1cc(O)c(O)c(O)c1` [corilagin, Corilagin], for which, on human LOXL2, the IC50 is 50 nM. Besides, in data set [1] (pre-incubation 3 h or 6 h), the “TGFβ1-induced p-smads after longer pre-incubation” value is recorded as “completely suppressed”. In addition, in [1] (A549 cells and primary lung fibroblasts, 6 h), the “effects on p-smad3 generation after knockdown of LOXL2” value is “completely blocked”. The “increase of urinary DPD/PYD levels days 10-21 post bleomycin” value in data set [2] is reported as “suppressed”. In addition, in [3], the “immune cell numbers or markers of injury” value is reported as “no effect”. Further, the results for the “corilagin concentration in conditioned medium” value in the data set with LOXL2-high A549 cells and in the data set with LOXL2-low HaCaT cells were “decreased dramatically” and “not”, respectively. In addition, the “EGF signaling through EGFR” value in the data set with EGFR was “no effect”. Besides, in [4], the “inhibition of LOX activity of wt and point mutant LOXL2” value is recorded as “completely inhibited”. In addition, the solubility result in “Solubility (statement)” was “more soluble”. Moreover, in data set [5], the “inhibition of TGFβ1 signaling in cells expressing K731R LOXL2” value was “completely resistant”.
